Experimental data reported in patent US6932975B2, “Cosmetic composition comprising a phosphoric triester and a skin activating component” (Kao Corporation, priority 1997, dated 2005).

System: horny layer of the lower inner arm
Assay: Retention of moisturizing effect: water content in the horny layer by impedance meter (Example 2)
Type: in vivo, human
Conditions: 20° C., humidity 30%, average N=10; for Retention of moisturizing effect (water content in the horny layer), After 3 hr.: after additional 3 hours, washed with hot water again; for Retention of moisturizing effect (water content in the horny layer), After 15 min.: applied 1 hour, washed off with hot water, 15 minutes after
Procedure: Cosmetics of their corresponding formulations shown in Table 7 were prepared to determine the retention of their moisturizing effects.
A fixed amount of each of the above samples was applied to the lower inner arm of a volunteer and washed off with hot water after left at rest for 1 hour. The volunteer was got to enter an air-conditioned room kept at a temperature of 20° C. and a humidity of 30%. Fifteen minutes after that, the water content in the horny layer of the volunteer was measured by an impedance meter (manufactured by IBS Company). After additional 3 hours, the treated arm was washed with hot water again. Fifty minutes after that, the water content was measured in the same manner as described above. The values shown in the table were average values (N=10).

Molecule	Retention of moisturizing effect (water content in the horny layer), After 3 hr.	Retention of moisturizing effect (water content in the horny layer), After 15 min.
CCCCOCCOP(=O)(OCCOCCCC)OCCOCCCC [Comparative product 9, Tris(butoxyethyl) phosphate]	40 μΩ^−1	70 μΩ^−1
OCC(O)CO [Comparative product 11, Glycerol]	45 μΩ^−1	75 μΩ^−1
O [Comparative product 12, Purified water]	40 μΩ^−1	60 μΩ^−1
Bis(butoxyethoxyethyl)ethyl phosphate [Comparative product 8]	40 μΩ^−1	70 μΩ^−1
